Measured values reported in ChEMBL document CHEMBL4483862, “Open-source discovery of chemical leads for next-generation chemoprotective antimalarials” (2018).

Test system: Plasmodium berghei
Assay: Luciferase/luciferin-expressing antifolate-resistant parasites were used to infect a culture of HepG2 cells that were pre-incubated with compounds. Infected hepatocytes emit light due to the luciferase reaction. Assay results are presented as the percent inhibition of light emission compared to control. […]
Format: functional
Settings: sporozoite; for IC90: read-out: LUCIFERASE INFECTION ASSAY - IC90
[1] = read-out: LUCIFERASE INFECTION ASSAY - IC50

Structure (SMILES): Cc1ccc2nc(NC(=O)c3c(F)cccc3F)c(C(=O)NC3CCCC3)n2c1
- IC50 (HEPG2TOX_HILL_SLOPE 0.446, HEPG2TOX_R_SQUARED 0.792, PBLUC_HILL_SLOPE 1.53, PBLUC_R_SQUARED 0.752, read-out: LUCIFERASE INFECTION ASSAY - IC50): 1.95 µM
- IC90: 8.17 µM

Structure (SMILES): Cc1nn2c(nc(Sc3nnnn3C(C)C)c3ccccc32)c1Cl
- IC50 (PBLUC_HILL_SLOPE 6.07, PBLUC_R_SQUARED 0.112, read-out: LUCIFERASE INFECTION ASSAY - IC50): 8.31 µM
- IC90: > 10 µM

Structure (SMILES): CC(C)N(C(=O)COC(=O)C1=NNC(=O)CC1)C(C)C
- IC50 (FFLUC_HILL_SLOPE 15.7, FFLUC_R_SQUARED 0.158, read-out: LUCIFERASE INFECTION ASSAY - IC50): > 10 µM
- IC90: > 10 µM

Structure (SMILES): O=C(Nc1ccc(F)cc1)c1nnsc1S(=O)(=O)c1ccc(Cl)cc1
- IC50 [1]: 6.54 µM
- IC90: > 8.29 µM

Structure (SMILES): CC(C)c1nc(N2CCN(CC(=O)N3CCCC3)CC2)c(C#N)c2c1CCC2
- IC50 (FFLUC_HILL_SLOPE 13.3, FFLUC_R_SQUARED 0.232, PBLUC_HILL_SLOPE 4.16, PBLUC_R_SQUARED 0.67, read-out: LUCIFERASE INFECTION ASSAY - IC50): 1.73 µM
- IC90: 2.94 µM

Structure (SMILES): Cn1c(=O)c2ccc(C(=O)Nc3cccc(C(=O)Nc4cccc(C(F)(F)F)c4)c3)nc2n(C)c1=O
- IC50 (PBLUC_HILL_SLOPE 3.03, PBLUC_R_SQUARED 0.059, read-out: LUCIFERASE INFECTION ASSAY - IC50): 6.54 µM
- IC90: > 10 µM

Structure (SMILES): O=C(Nc1ccc(C(OC(=O)c2ccccc2)(C(F)(F)F)C(F)(F)F)cc1)c1ccccc1
- IC50 [1]: > 10 µM
- IC90: > 10 µM

Structure (SMILES): COc1cccc(Nc2nc(C(N)Cc3ccc(C(F)(F)F)cc3)cs2)n1 (configuration not stated)
- IC50 (PBLUC_HILL_SLOPE 179, PBLUC_R_SQUARED 0.233, read-out: LUCIFERASE INFECTION ASSAY - IC50): 3.53 µM
- IC90: 3.58 µM

Structure (SMILES): CCCCN(C)CC(O)Cn1c2ccc(Br)cc2c2cc(Br)ccc21 (configuration not stated)
- IC50 (PBLUC_HILL_SLOPE 8.48, PBLUC_R_SQUARED 0.699, read-out: LUCIFERASE INFECTION ASSAY - IC50): 5.83 µM
- IC90: > 7.05 µM

Structure (SMILES): Cc1cnc(NC(=O)C2CCN(S(=O)(=O)c3ccc(Cl)cc3)CC2)s1
- IC50 (PBLUC_HILL_SLOPE 19, PBLUC_R_SQUARED 0.695, read-out: LUCIFERASE INFECTION ASSAY - IC50): 2.79 µM
- IC90: 3.13 µM

Structure (SMILES): COc1cc(-c2ccc3ncc(-c4cccc(CO)c4)n3n2)cc(OC)c1OC
- IC50 (HEPG2TOX_HILL_SLOPE 2.11, HEPG2TOX_R_SQUARED 0.989, PBLUC_HILL_SLOPE 5.29, PBLUC_R_SQUARED 0.606, read-out: LUCIFERASE INFECTION ASSAY - IC50): 1.66 µM
- IC90: 2.51 µM

Structure (SMILES): CCOc1ccc(S(=O)(=O)N2CCCCC2)cc1NC(=O)C1CC=CCC1 (configuration not stated)
- IC50 [1]: > 10 µM
- IC90: > 10 µM

Structure (SMILES): CCCn1nc(C(=O)Nc2ccccc2N2CCc3ccccc3C2)ccc1=O
- IC50 (HEPG2TOX_HILL_SLOPE 0.246, HEPG2TOX_R_SQUARED 0.177, PBLUC_HILL_SLOPE 1.82, PBLUC_R_SQUARED 0.418, read-out: LUCIFERASE INFECTION ASSAY - IC50): 4.28 µM
- IC90: > 10 µM

Structure (SMILES): Cc1cccc2sc(N(Cc3ccccc3)C(=O)CN3CCN(CC(=O)N4CCCC4)CC3)nc12
- IC50 (PBLUC_HILL_SLOPE 173, PBLUC_R_SQUARED 0.447, read-out: LUCIFERASE INFECTION ASSAY - IC50): 6.63 µM
- IC90: 6.71 µM

Structure (SMILES): Cc1ccc2nc(-c3ccc(NC(=O)CN4C(=O)NC(C)(c5ccc(OC(F)F)cc5)C4=O)cc3)sc2c1 (configuration not stated)
- IC50 (PBLUC_HILL_SLOPE 1.6, PBLUC_R_SQUARED 0.077, read-out: LUCIFERASE INFECTION ASSAY - IC50): > 10 µM
- IC90: > 10 µM

Structure (SMILES): Cc1nc(COc2ccc(C(=O)Nc3nc(-c4ccccn4)cs3)cc2)no1
- IC50 (HEPG2TOX_HILL_SLOPE 10.4, HEPG2TOX_R_SQUARED 0.524, PBLUC_HILL_SLOPE 14, PBLUC_R_SQUARED 0.305, read-out: LUCIFERASE INFECTION ASSAY - IC50): 2.96 µM
- IC90: 3.46 µM

Structure (SMILES): COCc1cccc(-c2cc(-c3cccc4ccccc34)cnc2N)c1
- IC50 (HEPG2TOX_HILL_SLOPE 1.78, HEPG2TOX_R_SQUARED 0.808, PBLUC_HILL_SLOPE 16.4, PBLUC_R_SQUARED 0.784, read-out: LUCIFERASE INFECTION ASSAY - IC50): 1.08 µM
- IC90: 1.23 µM

Structure (SMILES): COc1ccc(NCC2(c3ccnc(-c4ccccc4Cl)c3)CC2)cc1OC
- IC50 (HEPG2TOX_HILL_SLOPE 3.27, HEPG2TOX_R_SQUARED 0.816, PBLUC_HILL_SLOPE 4.33, PBLUC_R_SQUARED 0.443, read-out: LUCIFERASE INFECTION ASSAY - IC50): 5.49 µM
- IC90: 9.12 µM

Structure (SMILES): CCc1cccc(NC(=O)c2cc(C3CC3)nc3c2c(C)nn3C)c1
- IC50 [1]: > 10 µM
- IC90: > 10 µM

Structure (SMILES): COCc1c(C(=O)Nc2nnc(C3CCCCC3)s2)oc2ccccc12
- IC50 [1]: > 10 µM
- IC90: > 10 µM

Structure (SMILES): CC1(C)CC(=O)c2cnc(SCC(=O)Nc3ccc(F)cc3F)nc2C1
- IC50 [1]: > 8.74 µM
- IC90: > 8.74 µM

Structure (SMILES): N#C/C(=N\Nc1cccc(Cl)c1)C(=O)c1cc(-c2ccccc2)c(C(F)(F)F)s1
- IC50 (HEPG2TOX_HILL_SLOPE 1.47, HEPG2TOX_R_SQUARED 0.986, PBLUC_HILL_SLOPE 2.41, PBLUC_R_SQUARED 0.872, read-out: LUCIFERASE INFECTION ASSAY - IC50): 0.605 µM
- IC90: 1.5 µM

Structure (SMILES): CNc1snc(C)c1C(=O)OCc1coc(-c2cccs2)n1
- IC50 (PBLUC_HILL_SLOPE 23.3, PBLUC_R_SQUARED 0.377, read-out: LUCIFERASE INFECTION ASSAY - IC50): 0.0168 µM
- IC90: 0.0184 µM

Structure (SMILES): O=C1CSC(=O)N1CCN=Cc1c(O)n(-c2ccc(Cl)cn2)c(=O)c2ccccc12
- IC50 [1]: > 10 µM
- IC90: > 10 µM

Structure (SMILES): CC1CC1C(=O)Nc1cccc(S(=O)(=O)N(C)c2ccccc2)c1 (configuration not stated)
- IC50 [1]: > 10 µM
- IC90: > 10 µM

Structure (SMILES): Cc1ccc(CN(C)c2ccc([N+](=O)[O-])cc2Cl)o1
- IC50 [1]: > 10 µM
- IC90: > 10 µM

Structure (SMILES): CCCN(CC(=O)Nc1cc(Cl)ccc1Cl)CC(=O)Nc1sccc1C(N)=O
- IC50 [1]: > 10 µM
- IC90: > 10 µM

Structure (SMILES): CCCn1nc(C(=O)NCCc2ccc(-n3cccn3)cc2)c2ccccc2c1=O
- IC50 (HEPG2TOX_HILL_SLOPE 1.69, HEPG2TOX_R_SQUARED 0.716, PBLUC_HILL_SLOPE 8.19, PBLUC_R_SQUARED 0.628, read-out: LUCIFERASE INFECTION ASSAY - IC50): 3.1 µM
- IC90: 4.06 µM

Structure (SMILES): COc1ccc(C(OC[C@H]2O[C@@H](n3cnc4c(N)ncnc43)CC2O)(c2ccccc2)c2ccc(OC)cc2)cc1 (some centres not stated)
- IC50 [1]: > 5.96 µM
- IC90: > 5.96 µM

Structure (SMILES): CC1CCN(/C(=N/S(=O)(=O)c2ccc(-n3nc(C(F)(F)F)cc3-c3cccs3)cc2)N/N=C/c2ccc(Cl)cc2)CC1
- IC50 (FFLUC_HILL_SLOPE 12.3, FFLUC_R_SQUARED 0.48, read-out: LUCIFERASE INFECTION ASSAY - IC50): > 5.2 µM
- IC90: > 5.2 µM

Structure (SMILES): Cc1nnc(Sc2ccc([N+](=O)[O-])c(Sc3nnc(C)s3)n2)s1
- IC50 (HEPG2TOX_HILL_SLOPE 6.33, HEPG2TOX_R_SQUARED 0.72, PBLUC_HILL_SLOPE 8.1, PBLUC_R_SQUARED 0.222, read-out: LUCIFERASE INFECTION ASSAY - IC50): > 8.58 µM
- IC90: > 8.58 µM
